Values joined by “and” are separate entries in the source; they are usually repeats but may differ in a detail not shown here. Identical values can stand only once.
System: STAM mice (NASH)
Experiment: STAM model of NASH (Example 2): NAFLD activity score, Sirius red, α-SMA staining
Type: in vivo, mouse
Set-up: key to NAFLD Activity: Ballooning Score, mean / NAFLD Activity: Steatosis Score, mean / NAFLD Activity: Inflammation Score, mean / NAFLD Activity Score: raw data / NAFLD Activity: Steatosis Score: raw data / NAFLD Activity: Ballooning Score: raw data: NAS = steatosis (0-3) + inflammation (0-2) + ballooning (0-2)
Description: Amino Acid Composition A-1 and Obeticholic acid (6α-ethyl-chenodeoxycholic acid; “OCA”) were tested for their ability to treat NASH in the STAM™ model (Stelic Institute & Co., Tokyo, Japan; Saito K. et al., 2015 Sci Rep 5: 12466). Two additional groups of normal C57BL/6 mice fed standard chow and vehicle treated STAM™ mice were included as controls. All animals receiving treatment or vehicle were treated starting at 6 weeks until 9 weeks of age. Compounds were administered via oral gavage, with a dose volume of 10 ml/kg. Amino Acid Composition A-1 was administered twice daily at a dose of 1500 mg/kg, and OCA was administered once daily at a dose of 30 mg/kg.
STAM™ is a model for non-alcoholic steatohepatitis (NASH) and hepatocellular carcinoma (HCC), developed by SMC Laboratories, Inc. and created by the combination of chemical and dietary interventions using C57BL/6 mice (Saito K. et al., 2015 Sci Rep 5: 12466). Mice are treated with a low dose of streptozotocin at birth and fed a high fat diet starting at 4 weeks. Evidence of fatty liver is present by 5 weeks, followed by NASH by 7 weeks and fibrosis by 9 weeks.
NASH was induced in 53 male mice by a single subcutaneous injection of 200 μg streptozotocin (STZ, Sigma-Aldrich, USA) solution 2 days after birth and feeding with high fat diet (HFD, 57 kcal % fat, Cat #HFD32, CLEA Japan, Japan) after 4 weeks of age.
Amino Acid Composition A-1, OCA and Vehicle (described below) were administered by oral route in a volume of 10 mL/kg. Amino Acid Composition A-1 was solubilized in deionized water to 150 mg/ml (10×). OCA (Advanced ChemBlocks Inc.) was resuspended in 0.5% methylcellulose in water to 3 mg/ml (10×). Amino Acid Composition A-1 was administered at a dose of 1500 mg/kg twice daily (9 am and 7 pm). OCA was administered at a dose of 30 mg/kg once daily (9 am).
Liver samples from mice in Group 2 (Vehicle), 3 (Amino Acid Composition A-1) and 4 (OCA) were used for the following assays. For HE staining, sections were cut from paraffin blocks of liver tissue prefixed in Bouin's solution and stained with Lillie-Mayer's Hematoxylin (Muto Pure Chemicals Co., Ltd., Japan) and eosin solution (Wako Pure Chemical Industries). NAFLD Activity score (NAS) was calculated according to the criteria of Kleiner (Kleiner D. E. et al., Hepatology, 2005; 41:1313).
Group 3: Amino Acid Composition A-1: Ten NASH mice were orally administered water for irrigation supplemented with Amino Acid Composition A-1 at a dose of 1500 mg/kg twice daily (9 am and 7 pm) from 6 to 9 weeks of age.
Group 4: OCA: Ten NASH mice were orally administered 0.5% methylcellulose supplemented with OCA at a dose of 30 mg/kg once daily (9 am) from 6 to 9 weeks of age.
The non-alcoholic fatty liver disease (NAFLD) activity score was assessed via histological analysis and grading of H&E stained liver sections from each animal. This score is the sum of three individual scores that grade the degree of steatosis (0-3), inflammation (0-2), and hepatocyte ballooning (0-2). All tissues were graded using the scoring criteria of Kleiner et al. (Kleiner et al. Hepatology. 2005; 41(6): 1313-21). Data are mean±standard deviation (stdev). […] Both Amino Acid Composition A-1 and OCA were statistically different from vehicle for NAFLD Activity Score when compared using Dunnett's multiple comparisons test (Amino Acid Composition A-1 p=0.0001, OCA p=0.0001).
Fibrosis was assessed by analysis of Sirius red positively stained cell area from stained liver sections from each animal. Images were quantified using the percent of positively stained area was used as a measure of fibrosis. Data are mean±standard deviation (stdev). […] Amino Acid Composition A-1 and OCA were statistically different from vehicle when compared using Dunnett's multiple comparisons test (Amino Acid Composition A-1 p=0.00494, OCA p<0.016).
Liver sections of all mice were stained for the marker α-smooth muscle actin (aSMA) to identify activated hepatic stellate cells. […]

[1] = STAM mice liver sections, A-1 1500 mg/kg twice daily, OCA 30 mg/kg once daily
[2] = STAM mice treated 6 to 9 weeks of age, A-1 1500 mg/kg twice daily, OCA 30 mg/kg once daily

## CC[C@H]1[C@@H](O)[C@@H]2[C@H](CC[C@]3(C)[C@@H]([C@H](C)CCC(=O)O)CC[C@@H]23)[C@@]2(C)CC[C@@H](O)C[C@@H]12 [OCA, 6α-ethyl-chenodeoxycholic acid]
[1]
  Activated hepatic stellate cells (mean positively stained area, α-smooth muscle actin): 1.562+/−0.31% and 1.562%
  Fibrosis (mean positively stained area, Sirius red): 0.776+/−0.25% and 0.776%
[2]
  NAFLD Activity: Ballooning Score, mean: 0.3+/−0.48 and 0.3
  NAFLD Activity: Inflammation Score, mean: 1.8
  NAFLD Activity: Steatosis Score, mean: 0.8
STAM mice treated 6 to 9 weeks of age, A-1 1500 mg/kg twice daily, OCA 30 mg/kg once daily, oral
  NAFLD Activity Score (NAS), mean: 2.9+/−0.74 and 2.9
Individual STAM mice
  Activated hepatic stellate cells (positively stained area, α-smooth muscle actin): raw data: 1.51% and 1.49% (2×) and 1.17% and 1.5% and 1.13% and 2.03% and 1.87% and 1.97% and 1.46%
  Fibrosis (positively stained area, Sirius red): raw data: 1.1% and 1.19% and 0.89% and 0.91% and 0.66% and 0.72% and 0.68% and 0.69% and 0.36% and 0.56%
  NAFLD Activity Score: raw data: 2 (3×) and 4 (2×) and 3 (5×)
  NAFLD Activity: Ballooning Score: raw data: 0 (7×) and 1 (3×)
  NAFLD Activity: Inflammation Score: raw data: 1 (4×) and 2 (4×) and 3 (2×)
  NAFLD Activity: Steatosis Score: raw data: 1 (8×) and 0 (2×)

Source: US20210275480A1, “COMPOSITIONS AND METHODS FOR THE REDUCTION OR TREATMENT OF FIBROSIS” (AXCELLA HEALTH INC., priority 2018, published 2021)
